# Measurements published in BindingDB's records for patent WO2024186584 (8932 Hightail Drive, 2024).
# Biological target: Amyloid-beta precursor protein (Homo sapiens, UniProt P05067)
# Test: Competitive radioligand binding to pathological aggregated beta amyloid in AD tissue
# Chain of Amyloid-beta precursor protein (P05067 whole entry): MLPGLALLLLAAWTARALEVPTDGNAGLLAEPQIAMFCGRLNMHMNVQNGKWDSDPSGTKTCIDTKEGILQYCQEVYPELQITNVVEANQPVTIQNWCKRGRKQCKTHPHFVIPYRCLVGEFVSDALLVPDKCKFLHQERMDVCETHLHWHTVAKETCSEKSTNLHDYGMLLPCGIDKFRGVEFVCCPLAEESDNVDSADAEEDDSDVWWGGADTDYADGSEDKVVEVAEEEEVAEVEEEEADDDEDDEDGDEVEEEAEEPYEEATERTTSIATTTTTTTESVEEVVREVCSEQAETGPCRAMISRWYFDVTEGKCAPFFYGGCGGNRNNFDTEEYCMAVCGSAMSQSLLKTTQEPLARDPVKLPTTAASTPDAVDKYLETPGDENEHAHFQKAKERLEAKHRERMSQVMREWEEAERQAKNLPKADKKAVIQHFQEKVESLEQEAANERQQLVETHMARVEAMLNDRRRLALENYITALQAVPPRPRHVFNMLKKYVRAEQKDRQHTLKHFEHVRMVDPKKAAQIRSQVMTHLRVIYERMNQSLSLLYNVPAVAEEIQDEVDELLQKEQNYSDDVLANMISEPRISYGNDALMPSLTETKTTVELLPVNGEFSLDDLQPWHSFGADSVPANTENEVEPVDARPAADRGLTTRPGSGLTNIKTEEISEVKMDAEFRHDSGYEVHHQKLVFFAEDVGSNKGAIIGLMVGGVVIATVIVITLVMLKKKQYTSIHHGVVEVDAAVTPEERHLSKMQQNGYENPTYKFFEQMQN
row,SMILES,Ki [µM]
1,"FCOC[C@H]1CN(c2ncc(/C=C/c3ccc(-n4ccnc4)nc3)cn2)CCN1c1ncccn1 [WO2024186584, Example 4]",0.1
2,"COC[C@H]1CN(c2ncc(/C=C/c3ccc(-n4ccnc4)nc3)cn2)CCN1c1ncc(OCC(O)CF)cn1 (stereo partly drawn) [WO2024186584, Example 39]",4

# More lines, now with the values ahead:
row,Ki [µM],SMILES
1,4,"FCCOC[C@H]1CN(c2ncc(/C=C/c3ccc(-n4ccnc4)nc3)cn2)CCN1c1ncccn1 [WO2024186584, Example 3]"
2,4,"COC[C@H]1CN(c2ncc(C#Cc3ccc(-n4ccnc4)nc3)cn2)CCN1c1cc(F)ncn1 [WO2024186584, Example 12]"
3,4,"COC[C@H]1CN(c2ncccn2)CCN1c1ncc(/C=C/c2ccc(-n3ccnc3)nc2)cn1 [WO2024186584, Example 28]"
4,4,"COC[C@H]1CN(c2ncc(/C=C/c3ccc(-n4ccnc4)nc3)cn2)CCN1c1ncc(OCCF)cn1 [WO2024186584, Example 35]"

# Biological target: Alpha-synuclein (Homo sapiens, UniProt P37840)
# Test: Alpha-Synuclein Tissue Homogenate Binding Assay
# Procedure: For displacement α-synuclein binding assay, compounds and control were solvated in dimethyl sulfoxide (DMSO) and transferred using focused acoustic energy by an Echo 655 liquid handling instrument (Beckman Coulter, Indianapolis, IN) into designated wells of uniquely bar coded 96-well v-bottom low binding polypropylene microplates (Thermo Scientific, 249946). Compound dose response curves were prepared in a 10-point, 3-fold fashion within columns 2 -11 of the microplate from high to low compound concentrations. The final assay concentration of dose response curves when starting at 1 mM ranged from 1.2 µM to 0.061 nM (0.12 % DMSO final assay concentration, 270 nL/well). Controls included no inhibitor (DMSO only) dispensed into wells A1 – D1, A12 – D12 for minimum efficacy signal and Compound 1000 at a final assay concentration of 12 µM into wells E1 – H1, E12 – H12 for maximum efficacy signal. Liquid-handling steps for dispensing insoluble fractions of PD brain homogenates and 25666 radioligand were performed using a Bravo automated liquid handling platform equipped with a 96LT disposable tip head (Agilent Technologies, Santa Clara, CA). […] A clear adhesive seal (TopSeal-A PLUS, PerkinElmer 6050185) was then applied to the top of each microplate and counted 1 minute/well on MicroBeta2 system (PerkinElmer, Model: 2450-0120).
row,SMILES,Ki [µM]
1,"FCOC[C@H]1CN(c2ncc(/C=C/c3ccc(-n4ccnc4)nc3)cn2)CCN1c1ncccn1 [WO2024186584, Example 4]",0.0012
2,"COC[C@H]1CN(c2cc(F)ccn2)CCN1c1ncc(/C=C/c2ccc(-n3ccnc3)nc2)cn1 [WO2024186584, Example 17]",0.0009
